The text below walks through data of US20090257979A1, “Novel Inhibitors of Hepatitis C Virus Replication” (INTERMUNE, INC., priority 2008, published 2009).

In one test the target is T1, NS5B polymerase protein (Hepatitis C virus genotype 1a, UniProt P27958).
T1 construct: pre-incubated with the RNA template and NS5B polymerase protein; Replizyme
The experiment in a line: biochemical. To be noted: pre-incubated 37° C. 30 minutes; RdRp reaction 90 minutes at 37° C.; read-out: HCV NS5B inhibition EC50. The protocol: The compounds were tested in the Replizyme HCV heterotemplate radioactive RNA-dependent RNA-polymerase (RdRp) assay. The test compounds were pre-incubated with the RNA template and NS5B polymerase protein at 37° C. for 30 minutes. The RdRp reaction was initiated with the addition of the NTPs to the buffer-NS5B-compound mix, and was allowed to proceed for 90 minutes at 37° C. Control reactions included: no enzyme, 5% DMSO (test compound solvent), no compound/solvent, Cordycepin-TP and HCV-796 (IC50 values used as a reference inhibition). Radioactive products were collected by applying the stopped reaction to DE-81 paper, air dried prior to washing with buffer comprising NaH2PO4 and sodium pyrophosphate to remove unincorporated ^32P-GTP in the NTP mix, and rinsed with dH2O followed by 100% ethanol. The DE-81 paper was air dried, squares cut out and placed in scintillation tubes for counting.

The subject of another test is HCV Replicon. Nature of the test: HCV Replicon inhibition. The format is cell-based. The following applies: Hepatitis C virus. (In antiviral work, replicon cells carry a viral genome segment that copies itself.)

pEC50: −log10 of the molar value.

T1 sequence (P27958 2421-3011): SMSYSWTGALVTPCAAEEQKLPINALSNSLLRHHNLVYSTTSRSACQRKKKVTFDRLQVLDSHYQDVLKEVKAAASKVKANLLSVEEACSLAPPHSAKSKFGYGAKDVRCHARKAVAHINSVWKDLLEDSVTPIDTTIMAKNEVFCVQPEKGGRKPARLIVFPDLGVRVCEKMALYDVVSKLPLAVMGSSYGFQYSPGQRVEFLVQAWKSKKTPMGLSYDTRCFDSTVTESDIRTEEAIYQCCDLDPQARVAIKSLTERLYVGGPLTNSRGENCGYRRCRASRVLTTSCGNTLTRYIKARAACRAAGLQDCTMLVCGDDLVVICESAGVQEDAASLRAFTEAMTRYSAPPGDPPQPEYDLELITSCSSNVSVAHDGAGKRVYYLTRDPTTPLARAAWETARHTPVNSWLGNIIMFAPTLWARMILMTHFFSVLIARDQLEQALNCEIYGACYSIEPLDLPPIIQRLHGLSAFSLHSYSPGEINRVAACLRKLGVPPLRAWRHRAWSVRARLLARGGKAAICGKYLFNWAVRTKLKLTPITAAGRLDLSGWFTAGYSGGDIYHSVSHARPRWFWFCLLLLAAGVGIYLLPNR

A word on the pEC50: it is −log10 of the EC50, conventionally taken in molar units. Take `CS(=O)(=O)Nc1ccc2c(c1)S(=O)(=O)N=C(c1c(O)n3ccccc3c(Cc3cccs3)c1=O)N2` [Compound 244]: on NS5B polymerase protein, the pEC50 was > 7.00.
For `CC(C)CCC1(C)C(=O)C(C2=NS(=O)(=O)c3cc(NS(C)(=O)=O)ccc3N2)=C(O)c2ccnn21` (stereo not drawn) [Compound 223], the pEC50 with HCV Replicon was 5.00 to 6.00; at NS5B polymerase protein, > 7.00.
Taken in the same sequence, the figures for `CC(C)CCn1cc(C2=NS(=O)(=O)c3cc(NS(C)(=O)=O)ccc3N2)c2ccc(C(C)C)cc21` [Compound 211] were 4.30 to 5.00 and 5.00 to 6.00.
Taken in the same sequence, the figures for `COc1cccc2c1c(C1=NS(=O)(=O)c3cc(NS(C)(=O)=O)ccc3N1)cn2CCC(C)C` [Compound 205] were 4.30 to 5.00 and 4.30 to 5.00.
Taken in the same sequence, the figures for `CC(C)CCc1c(O)c(C2=Nc3ccccc3S(=O)(=O)N2)c(O)c2ccccc12` [Compound 104, 1,3-dihydroxy-2-(1,1-dioxo-2H-(1,2,4)-benzothiadiazin-3-yl)-4-(3-methylbutyl)naphthalene] were 5.00 to 6.00 and 6.00 to 7.00.
Consider `CC(C)CCn1cc(C2=NS(=O)(=O)c3cc(NS(C)(=O)=O)ccc3N2)c2ccc(O)cc21` [Compound 210], for which the pEC50 was 4.30 to 5.00 in the test on HCV Replicon and 6.00 to 7.00 at NS5B polymerase protein.
Taken in the same sequence, the figures for `CC(C)CCC1(C)C(=O)C(C2=NS(=O)(=O)c3cc(NS(C)(=O)=O)ccc3N2)=C(O)c2cccn21` (stereo not drawn) [Compound 214] were 6.00 to 7.00 and > 7.00.
Taken in the same sequence, the figures for `CS(=O)(=O)Nc1ccc2c(c1)S(=O)(=O)N=C(c1c(O)n3nccc3n(Cc3ccccc3)c1=O)N2` [Compound 230, N-[3-(4-Benzyl-7-hydroxy-5-oxo-4,5-dihydro-pyrazolo[1,5-a]pyrimidin-6-yl)-1,1-dioxo-1,4-dihydro-1lambda*6*-benzo[1,2,4]thiadiazin-7-yl]-methanesulfonamide] were > 7.00 and 5.00 to 6.00.
Taken in the same sequence, the figures for `CC(C)CCc1c(=O)c(C2=NS(=O)(=O)c3cc(NS(=O)(=O)C4CC4)ccc3N2)c(O)n2ccccc12` [Compound 226] were > 7.00 and > 7.00.
On to `CS(=O)(=O)Nc1ccc2c(c1)S(=O)(=O)N=C(c1c(O)n3ccccc3c(Cc3ccc(F)c(F)c3)c1=O)N2` [Compound 236, N-{3-[1-(3,4-Difluoro-benzyl)-4-hydroxy-2-oxo-2H-quinolizin-3-yl]-1,1-dioxo-1,4-dihydro-1lambda′6′-benzo[1,2,4]thiadiazin-7-yl}-methanesulfonamide], for which the pEC50 with HCV Replicon and at NS5B polymerase protein was > 7.00 each time.
On to `CC(C)CCn1c(=O)c(C2=NS(=O)(=O)c3ccccc3N2)c(O)n2ccnc12` [Compound 221, 6-(1,1-Dioxo-1,4-dihydro-1lambda*6*-benzo[1,2,4]thiadiazin-3-yl)-5-hydroxy-8-(3-methyl-butyl)-8H-imidazo[1,2-a]pyrimidin-7-one], for which the values for the pEC50 in the test on HCV Replicon and on NS5B polymerase protein were < 4.30 and 6.00 to 7.00, respectively.
For `CC(C)CCc1c(=O)c(C2=NS(=O)(=O)c3cc(NS(C)(=O)=O)ccc3N2)c(O)n2ccccc12` [Compound 225], the pEC50 in the test on HCV Replicon and at NS5B polymerase protein was > 7.00 each time.
For the compound `CC(C)CCc1c2n(c(O)c(C3=NS(=O)(=O)c4cc(NS(C)(=O)=O)ccc4N3)c1=O)CCCC2` [Compound 220], the pEC50 was 6.00 to 7.00 in the test with HCV Replicon and > 7.00 at NS5B polymerase protein.
Taken in the same sequence, the figures for `COc1ccc2c(C3=NS(=O)(=O)c4cc(NS(C)(=O)=O)ccc4N3)cn(CCC(C)C)c2c1` [Compound 206] were < 4.30 and 5.00 to 6.00.
Taken in the same sequence, the figures for `CC(C)CCc1c(=O)c(C2=NS(=O)(=O)c3cc(NS(C)(=O)=O)ccc3N2)c(O)n2cc(F)ccc12` [Compound 250] were > 7.00 and > 7.00.
Taken in the same sequence, the figures for `CC(C)CCn1cc(C2=NS(=O)(=O)c3cc(NS(C)(=O)=O)ccc3N2)c2ccccc21` [Compound 203] were < 4.30 and 6.00 to 7.00.
For the compound `CC(C)CCn1c(=O)c(C2=NS(=O)(=O)c3cc(NS(C)(=O)=O)ccc3N2)c(O)n2nc(C3CC3)cc12` [Compound 234, N-{3-[2-cyclopropyl-7-Hydroxy-4-(3-methyl-butyl)-5-oxo-4,5-dihydro-pyrazolo[1,5-a]pyrimidin-6-yl]-1,1-dioxo-1,4-dihydro-1lambda*6*-benzo[1,2,4]thiadiazin-7-yl}-methanesulfonamide], the pEC50 was > 7.00 in the test with HCV Replicon and 4.30 to 5.00 at NS5B polymerase protein.
Taken in the same sequence, the figures for `Cc1cc2n(CCC(C)C)c(=O)c(C3=NS(=O)(=O)c4cc(NS(C)(=O)=O)ccc4N3)c(O)n2n1` [Compound 233, N-{3-[7-Hydroxy-2-methyl-4-(3-methyl-butyl)-5-oxo-4,5-dihydro-pyrazolo[1,5-a]pyrimidin-6-yl]-1,1-dioxo-1,4-dihydro-1lambda*6*-benzo[1,2,4]thiadiazin-7-yl}-methanesulfonamide] were > 7.00 and 5.00 to 6.00.
Taken in the same sequence, the figures for `Cc1ccc2c(CCC(C)C)c(=O)c(C3=NS(=O)(=O)c4cc(NS(C)(=O)=O)ccc4N3)c(O)n2c1` [Compound 252] were > 7.00 and > 7.00.
Taken in the same sequence, the figures for `CS(=O)(=O)Nc1ccc2c(c1)S(=O)(=O)N=C(c1c(O)n3ccccc3c(CCC3CC3)c1=O)N2` [Compound 253] were 6.00 to 7.00 and 5.00 to 6.00.
`CC(C)CCC1(C)C(=O)C(C2=Nc3ccccc3S(=O)(=O)N2)=C(O)c2cccn21` (stereo not drawn) [Compound 213]: the results for the pEC50 in the test with HCV Replicon and at NS5B polymerase protein were 4.30 to 5.00 and > 7.00, respectively.
Taken in the same sequence, the figures for `CC(C)CCn1c(=O)c(C2=NS(=O)(=O)c3cc(NS(C)(=O)=O)ccc3N2)c(O)n2nccc12` [Compound 229, N-{3-[7-Hydroxy-4-(3-methyl-butyl)-5-oxo-4,5-dihydro-pyrazolo[1,5-a]pyrimidin-6-yl]-1,1-dioxo-1,4-dihydro-1lambda*6*-benzo[1,2,4]thiadiazin-7-yl}-methanesulfonamide] were > 7.00 and 6.00 to 7.00.
Taken in the same sequence, the figures for `CS(=O)(=O)Nc1ccc2c(c1)S(=O)(=O)N=C(c1c(O)n3ccccc3c(Cc3ccccc3F)c1=O)N2` [Compound 237, N-{3-[1-(2-Fluoro-benzyl)-4-hydroxy-2-oxo-2H-quinolizin-3-yl]-1,1-dioxo-1,4-dihydro-1lambda′6′-benzo[1,2,4]thiadiazin-7-yl}-methanesulfonamide] were > 7.00 and > 7.00.
Taken in the same sequence, the figures for `CC(C)CCn1c(=O)c(C2=NS(=O)(=O)c3cc(NS(C)(=O)=O)ccc3N2)c(O)n2ncnc12` [Compound 235, N-{3-[7-Hydroxy-4-(3-methyl-butyl)-5-oxo-4,5-dihydro-[1,2,4]triazolo[1,5-a]pyrimidin-6-yl]-1,1-dioxo-1,4-dihydro-1lambda*6*-benzo[1,2,4]thiadiazin-7-yl}-methanesulfonamide] were > 7.00 and 5.00 to 6.00.
In the case of `CC(C)CCn1cc(C2=NS(=O)(=O)c3cc(NS(C)(=O)=O)ccc3N2)c2cc(Cl)ccc21` [Compound 207], the results for the pEC50 in the test on HCV Replicon and at NS5B polymerase protein were < 4.30 and 5.00 to 6.00, respectively.
`CC(C)CCC1(C)C(=O)C(C2=NS(=O)(=O)c3cc(NS(C)(=O)=O)ccc3N2)=C(O)c2nccn21` (stereo not drawn) [Compound 215]: the pEC50 on NS5B polymerase protein was 5.00 to 6.00.
With `CS(=O)(=O)Nc1ccc2c(c1)S(=O)(=O)N=C(c1c(O)n3ccccc3c(Cc3ccc(F)cc3)c1=O)N2` [Compound 228], the pEC50 with HCV Replicon and on NS5B polymerase protein was > 7.00 in each case.
As for `COc1ccc(Cc2c(=O)c(C3=NS(=O)(=O)c4cc(NS(C)(=O)=O)ccc4N3)c(O)n3ccccc23)cc1` [Compound 245], the pEC50 with HCV Replicon was > 7.00; on NS5B polymerase protein, 6.00 to 7.00.
Taken in the same sequence, the figures for `CC(C)CCn1cc(C2=NS(=O)(=O)c3cc(NS(C)(=O)=O)ccc3N2)c2cccc(Cl)c21` [Compound 208] were < 4.30 and 6.00 to 7.00.
As to `CC(C)CCn1nc(C2=NS(=O)(=O)c3cc(NS(C)(=O)=O)ccc3N2)c2ccccc21` [Compound 204], the values for the pEC50 in the test with HCV Replicon and at NS5B polymerase protein were 4.30 to 5.00 and 6.00 to 7.00, respectively.
For the compound `Cc1cc2c(o1)c(C1=NS(=O)(=O)c3cc(NS(C)(=O)=O)ccc3N1)c(=O)n1ccccc21` [Compound 242], the pEC50 at NS5B polymerase protein was 4.30 to 5.00.
For the compound `CS(=O)(=O)Nc1ccc2c(c1)S(=O)(=O)N=C(c1c(O)n3ccccc3c(Cc3ccccc3)c1=O)N2` [Compound 238, N-[3-(1-Benzyl-4-hydroxy-2-oxo-2H-quinolizin-3-yl)-1,1-dioxo-1,4-dihydro-1lambda′6′-benzo[1,2,4]thiadiazin-7-yl]-methanesulfonamide], the pEC50 in the test on HCV Replicon and on NS5B polymerase protein was > 7.00 each time.
Regarding `Cc1cccc2c(CCC(C)C)c(=O)c(C3=NS(=O)(=O)c4cc(NS(C)(=O)=O)ccc4N3)c(O)n12` [Compound 249], the figures for the pEC50 in the test on HCV Replicon and on NS5B polymerase protein were > 7.00 and 6.00 to 7.00, respectively.
Taken in the same sequence, the figures for `CC(C)CCn1cc(C2=NS(=O)(=O)c3ccccc3N2)c2ccccc21` [Compound 201] were 4.30 to 5.00 and 4.30 to 5.00.
With `CC(C)CCn1cc(C2=NS(=O)(=O)c3cc(NS(C)(=O)=O)ccc3N2)c2cc(Br)ccc21` [Compound 212], the pEC50 in the test with HCV Replicon is < 4.30; at NS5B polymerase protein, 5.00 to 6.00.
Regarding `CC(C)(C)CCc1c(=O)c(C2=NS(=O)(=O)c3cc(NS(C)(=O)=O)ccc3N2)c(O)n2ccccc12` [Compound 227], the pEC50 with HCV Replicon and on NS5B polymerase protein was > 7.00 each time.
